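Exposure lasted 48 hours, with cells grown in 96-well plates and compounds tested at five concentrations. The concentration for 50% growth inhibition is given as GI50. Definition used: TGI = concentration required for complete inhibition of growth.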
Key:
Assay in all cases: inhibition of tumour cell growth, NCI panel, 48 h
[1] = tested on: CAKI-1 renal
[2] = tested on: COLO 205 colon
[3] = tested on: BT-549 breast
[4] = tested on: SF-268 CNS
[5] = tested on: HCT-116 colon
[6] = tested on: EKVX NSCLC
[7] = tested on: UACC-62 melanoma
[8] = tested on: IGROV1 ovarian
[9] = tested on: OVCAR-3 ovarian
[10] = tested on: SN12C renal
[11] = tested on: SK-MEL-28 melanoma
[12] = tested on: HOP-62 NSCLC
[13] = tested on: HCC-2998 colon
[14] = tested on: 786-0 renal
[15] = tested on: MDA-MB-435
[16] = tested on: NCI-H226 lung
[17] = tested on: SF-295 CNS
[18] = tested on: U251 CNS
[19] = tested on: DU-145 prostate
[20] = tested on: TK-10 renal
[21] = tested on: CCRF-CEM leukemia
[22] = tested on: M14 melanoma
[23] = tested on: OVCAR-4 ovarian
[24] = tested on: UACC-257 melanoma
[25] = tested on: SNB-19 CNS
[26] = tested on: HL-60(TB) leukemia
[27] = tested on: NCI-H23 lung
[28] = tested on: SNB-75 CNS
[29] = tested on: K-562 leukemia
[30] = tested on: A549 NSCLC
[31] = tested on: RXF 393 renal
[32] = tested on: KM12 colon
[33] = tested on: T-47D breast
[34] = tested on: ACHN renal
[35] = tested on: A498 renal
[36] = tested on: PC-3 prostate
[37] = tested on: RPMI-8226 leukemia
[38] = tested on: SK-MEL-5 melanoma
[39] = tested on: NCI-H522 lung
[40] = tested on: OVCAR-8 ovarian
[41] = tested on: HCT-15 colon
[42] = tested on: OVCAR-5 ovarian
[43] = tested on: UO-31 renal
[44] = tested on: SW-620 colon
[45] = tested on: SK-OV-3 ovarian
[46] = tested on: HT29 colon
[47] = tested on: HOP-92 NSCLC
[48] = tested on: MCF7 breast
[49] = tested on: HS 578T breast
[50] = tested on: NCI/ADR-RES ovarian
[51] = tested on: NCI-H460 lung
[52] = tested on: SK-MEL-2 melanoma
[53] = tested on: SF-539 CNS
[54] = tested on: MOLT-4 leukemia
[55] = tested on: MDA-MB-231 breast
[56] = tested on: MALME-3M melanoma
[57] = tested on: LOX IMVI melanoma

CC1=NN(c2cccc(Cl)c2)C(=O)/C1=C\c1cn(CC(O)CN2CCCCC2)c2ccccc12 (centres undefined)
GI50 [1]: 1.83 µM | TGI [1]: 5.33 µM | GI50 [2]: 1730 nM | TGI [2]: 3.26 µM | GI50 [3]: 15 µM | TGI [3]: 29.5 µM | GI50 [4]: 10.1 µM | TGI [4]: 24.9 µM | GI50 [5]: 1740 nM | TGI [5]: 3.35 µM | GI50 [6]: 11.1 µM | TGI [6]: 25.9 µM | GI50 [7]: 2170 nM | TGI [7]: 4.9 µM | GI50 [8]: 2990 nM | TGI [8]: 14.6 µM | GI50 [9]: 7.98 µM | TGI [9]: 20.9 µM | GI50 [10]: 12.3 µM | TGI [10]: 35.3 µM | GI50 [11]: 1820 nM | TGI [11]: 3.47 µM | GI50 [12]: 12.4 µM | TGI [12]: 26.5 µM | GI50 [13]: 6.12 µM | TGI [13]: 19.2 µM | GI50 [14]: 7.46 µM | TGI [14]: 20.8 µM | GI50 [15]: 1890 nM | TGI [15]: 3.74 µM | GI50 [16]: 22.5 µM | TGI [16]: 50.4 µM | GI50 [17]: 2240 nM | TGI [17]: 5.49 µM | GI50 [18]: 3.64 µM | TGI [18]: 14 µM | GI50 [19]: 10.4 µM | TGI [19]: 23.2 µM | GI50 [20]: 7.51 µM | TGI [20]: 21.3 µM | GI50 [21]: 3380 nM | TGI [21]: > 100 µM | GI50 [22]: 1750 nM | TGI [22]: 3.29 µM | GI50 [23]: 13.3 µM | TGI [23]: 28.1 µM | GI50 [24]: 2350 nM | TGI [24]: 4.62 µM | GI50 [25]: 16.8 µM | TGI [25]: 53.7 µM | GI50 [26]: 2890 nM | TGI [26]: 14.4 µM | GI50 [27]: 12.4 µM | TGI [27]: 32.4 µM | GI50 [28]: 7.75 µM | TGI [28]: 21.1 µM | GI50 [29]: 3.29 µM | TGI [29]: 39.4 µM | GI50 [30]: 24.6 µM | TGI [30]: 72.9 µM | GI50 [31]: 4.97 µM | TGI [31]: 17.5 µM | GI50 [32]: 2920 nM | TGI [32]: 8.26 µM | GI50 [33]: 15.8 µM | TGI [33]: 36.2 µM | GI50 [34]: 3.18 µM | TGI [34]: 14.6 µM | GI50 [35]: 14.6 µM | TGI [35]: 41.6 µM | GI50 [36]: 9.81 µM | TGI [36]: 26.1 µM | GI50 [37]: 2910 nM | TGI [37]: 8.73 µM | GI50 [38]: 3.34 µM | TGI [38]: 10.9 µM | GI50 [39]: 10.9 µM | TGI [39]: 26.5 µM | GI50 [40]: 6.93 µM | TGI [40]: 92.9 µM | GI50 [41]: 2420 nM | TGI [41]: 6.7 µM | GI50 [42]: 14.6 µM | TGI [42]: 33.9 µM | GI50 [43]: 1730 nM | TGI [43]: 7.12 µM | GI50 [44]: 1730 nM | TGI [44]: 3.53 µM | GI50 [45]: 12.9 µM | TGI [45]: 26.6 µM | GI50 [46]: 2020 nM | TGI [46]: 4.57 µM | GI50 [47]: 14.8 µM | TGI [47]: 38 µM | GI50 [48]: 6.47 µM | TGI [48]: 21.5 µM | GI50 [49]: 6.14 µM | TGI [49]: 33.6 µM | GI50 [50]: 4.79 µM | TGI [50]: 20.7 µM | GI50 [51]: 2440 nM | TGI [51]: 6.4 µM | GI50 [52]: 10.3 µM | TGI [52]: 24.7 µM | GI50 [53]: 10.2 µM | TGI [53]: 26.6 µM | GI50 [54]: 4.76 µM | TGI [54]: 28.8 µM | GI50 [55]: 3.32 µM | TGI [55]: 15.8 µM

COc1cccc(-c2cc(C(=O)Nc3ccc(/C=C/c4ccc(OC5CCN(C)CC5)cc4)cc3)ccc2OC)c1
GI50 [1]: 10.6 µM | TGI [1]: 45.6 µM | GI50 [13]: 1.83 µM | TGI [13]: 3.32 µM | GI50 [16]: 2.07 µM | TGI [16]: 5.04 µM | GI50 [21]: 1930 nM | TGI [21]: 5.14 µM | GI50 [33]: 1.7 µM | TGI [33]: 4.98 µM | GI50 [35]: 1.39 µM | TGI [35]: 3.8 µM | GI50 [37]: 2180 nM | TGI [37]: 5.15 µM | GI50 [40]: 1.96 µM | TGI [40]: 4.59 µM | GI50 [45]: 2.1 µM | TGI [45]: 5.13 µM

N#Cc1c(-c2ccc([N+](=O)[O-])cc2)c(C#N)c(=O)n(NS(=O)(=O)c2ccccc2)c1S
TGI [1]: > 100 µM | TGI [2]: > 100 µM | TGI [3]: 39.2 µM | TGI [4]: > 100 µM | TGI [5]: 39.8 µM | TGI [6]: > 100 µM | TGI [56]: > 100 µM | TGI [7]: 60.3 µM | TGI [8]: 48.3 µM | TGI [10]: 34.9 µM | TGI [11]: > 100 µM | TGI [12]: > 100 µM | TGI [13]: > 100 µM | TGI [14]: > 100 µM | TGI [15]: 81.9 µM | TGI [16]: > 100 µM | TGI [17]: > 100 µM | TGI [18]: > 100 µM | TGI [20]: > 100 µM | TGI [21]: 49.3 µM | TGI [22]: > 100 µM | TGI [23]: > 100 µM | TGI [24]: > 100 µM | TGI [25]: > 100 µM | TGI [28]: > 100 µM | TGI [29]: 77.4 µM | TGI [30]: > 100 µM | TGI [31]: > 100 µM | TGI [32]: > 100 µM | TGI [34]: > 100 µM | TGI [35]: > 100 µM | TGI [36]: > 100 µM | TGI [37]: 44.6 µM | TGI [38]: 30.4 µM | TGI [39]: 42.4 µM | TGI [40]: > 100 µM | TGI [41]: > 100 µM | TGI [42]: > 100 µM | TGI [44]: 45.7 µM | TGI [57]: 38 µM | TGI [45]: > 100 µM | TGI [46]: > 100 µM | TGI [47]: > 100 µM | TGI [48]: > 100 µM | TGI [49]: 58.5 µM | TGI [50]: > 100 µM | TGI [51]: > 100 µM | TGI [52]: 60.8 µM | TGI [53]: 46.1 µM | TGI [54]: 46.5 µM | TGI [55]: 44.7 µM

Reference: PubChem BioAssay (NCI)
